For the first assay, the target named is T1, Nanoluciferase-BRD9 fusion protein (3×FLAG-NLuc-BRD9) in SYO-1 cells (Homo sapiens, UniProt Q9H8M2).
T1 construct: expressed in transfected cells; host or cells: SYO-1
T1 sequence (Q9H8M2 1-597): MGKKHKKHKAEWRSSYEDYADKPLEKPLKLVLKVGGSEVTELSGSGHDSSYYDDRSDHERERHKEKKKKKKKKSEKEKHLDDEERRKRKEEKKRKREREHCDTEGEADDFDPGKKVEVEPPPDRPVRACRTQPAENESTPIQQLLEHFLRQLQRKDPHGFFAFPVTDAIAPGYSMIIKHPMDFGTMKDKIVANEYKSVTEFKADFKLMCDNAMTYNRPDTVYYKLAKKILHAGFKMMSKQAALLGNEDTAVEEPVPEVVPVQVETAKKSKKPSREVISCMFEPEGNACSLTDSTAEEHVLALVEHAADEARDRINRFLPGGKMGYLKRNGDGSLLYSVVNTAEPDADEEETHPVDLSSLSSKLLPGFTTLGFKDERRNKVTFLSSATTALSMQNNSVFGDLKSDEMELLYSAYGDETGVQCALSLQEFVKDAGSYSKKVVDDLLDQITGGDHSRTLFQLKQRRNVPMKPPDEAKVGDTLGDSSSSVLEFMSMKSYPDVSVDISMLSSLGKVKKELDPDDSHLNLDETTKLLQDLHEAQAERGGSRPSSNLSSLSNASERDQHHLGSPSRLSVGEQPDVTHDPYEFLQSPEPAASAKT
Kind of assay: SYO1 BRD9 NanoLuc degradation assay. The assay is classed as cell-based. To be noted: Table 6B; SYO-1 cells expressing 3×FLAG-NLuc-BRD9, 6 hours incubation, 1 μM top dose; read-out: SYO1 BRD9-NanoLuc degradation IC50. Here is the method:
Procedure: A stable SYO-1 cell line expressing 3×FLAG-NLuc-BRD9 was generated. On day 0 cells were seeded in 30 μL media into each well of 384-well cell culture plates. The seeding density was 8000 cells/well. On day 1, cells were treated with 30 nL DMSO or 30 nL of 3-fold serially DMSO-diluted compounds (10 points in duplicates with 1 μM as final top dose). Subsequently plates were incubated for 6 hours in a standard tissue culture incubator and equilibrated at room temperature for 15 minutes. Nanoluciferase activity was measured by adding 15 μL of freshly prepared Nano-Glo Luciferase Assay Reagent (Promega N1130), shaking the plates for 10 minutes and reading the bioluminescence using an EnVision reader. • Results: The Inhibition % was calculated using the following formula: % Inhibition=100×(LumHC−LumSample)/(LumHC−LumLC). DMSO treated cells are employed as High Control (HC) and 1 μM of a known BRD9 degrader standard treated cells are employed as Low Control (LC).
As for `COc1cc(-c2cn(C)c(=O)c3cc(C(=O)NC4CCN(CCCCCOc5ccc6c(c5)C(=O)N(C5CCC(=O)NC5=O)C6=O)CC4(F)F)sc23)cc(OC)c1CN(C)C` (centres unmarked) [Compound D90], the DC50 is below 10 nM.

The assay is the same for the next values; noted with them: Table 6C; SYO-1 cells expressing 3×FLAG-NLuc-BRD9, 6 hours incubation, 1 μM top dose; read-out: SYO1 BRD9-NanoLuc degradation IC50.
With `COc1cc(-c2cn(C)c(=O)c3cc(C#N)sc23)cc(OC)c1CN1CC(C#Cc2ccc3c(c2)C(=O)N(C2CCC(=O)NC2=O)C3)C1` (centres unmarked) [Compound D91], the DC50 was below 10 nM.

For the compound `COc1cc(-c2cn(C)c(=O)c3ccsc23)cc(OC)c1CN1CC(C#Cc2ccc3c(c2)C(=O)N(C2CCC(=O)NC2=O)C3)C1` (centres unmarked) [Compound D92], the DC50 is below 10 nM.

As to `COc1cc(Cl)cc(-c2cn(C)c(=O)c3cc(C(=O)NC4CCN(c5ccc6c(c5)C(=O)N(C5CCC(=O)NC5=O)C6)CC4)sc23)c1` (centres unmarked) [Compound D93], the DC50 is below 10 nM.

Take `COc1cc(-c2cn(C)c(=O)c3cc(N4CCC4)sc23)cc(OC)c1CN1CCC(CCN2CCN(c3ccc4c(c3)C(=O)N(C3CCC(=O)NC3=O)C4)CC2)CC1` (centres unmarked) [Compound D94]: the DC50 was below 10 nM.

Turning to `COc1cc(-c2cn(C)c(=O)c3cc(C(=O)Nc4cccc(OC5CCC(=O)NC5=O)c4)sc23)cc(OC)c1CN(C)C` (centres unmarked) [Compound D95], the DC50 was above 100 nM.

Regarding `COc1cc(OC)cc(-c2cn(C)c(=O)c3cc(C(=O)NC4CCN(c5cccc(OC6CCC(=O)NC6=O)c5)CC4)sc23)c1` (centres unmarked) [Compound D96], the DC50 is below 10 nM.

For `CNc1cc2c(=O)n(C)cc(-c3cc(OC)c(CN4CCC5(CC4)CN(c4ccc6c(c4)C(=O)N(C4CCC(=O)NC4=O)C6)C5)c(OC)c3)c2s1` (centres unmarked) [Compound D97], the DC50 is below 10 nM.

Turning to `COc1cc(OC)cc(-c2cn(C)c(=O)c3cc(C(=O)NC4CCN(C5CCN(c6ccc7c(c6)C(=O)N(C6CCC(=O)NC6=O)C7)CC5)CC4(F)F)sc23)c1` (centres unmarked) [Compound D98], the DC50 is below 10 nM.

With `COc1cc(-c2cn(C)c(=O)c3ccsc23)cc(OC)c1CN1CCC(CN2CCC3(CC2)CN(c2ccc4c(c2)C(=O)N(C2CCC(=O)NC2=O)C4)C3)CC1` (centres unmarked) [Compound D99], the DC50 was below 10 nM.

Regarding `COc1cc2c(=O)n(C)cc(-c3cc(OC)c(CN4CCC(CN5CCC6(CC5)CN(c5ccc7c(c5)C(=O)N(C5CCC(=O)NC5=O)C7)C6)CC4)c(OC)c3)c2s1` (centres unmarked) [Compound D100], the DC50 was below 10 nM.

For the compound `COc1cc(-c2cn(C)c(=O)c3cc(C#N)sc23)cc(OC)c1CN1CCC(CN2CCC3(CC2)CN(c2ccc4c(c2)C(=O)N(C2CCC(=O)NC2=O)C4)C3)CC1` (centres unmarked) [Compound D101], the DC50 is below 10 nM.

Consider `COc1cc(-c2cn(C)c(=O)c3cc(C(=O)NC4CCN(CCC5CCN(c6ccc7c(c6)CN(C6CCC(=O)NC6=O)C7=O)CC5)CC4(F)F)sc23)cc(OC)c1CN(C)C` (centres unmarked) [Compound D102], for which the DC50 was below 10 nM.

In the case of `Cn1cc(-c2cccc(C(F)(F)F)c2)c2sc(C(=O)NC3CN(c4ccc5c(c4)C(=O)N(C4CCC(=O)NC4=O)C5)C3)cc2c1=O` (centres unmarked) [Compound D103], the DC50 was below 10 nM.

On to `COc1cc(-c2cn(C)c(=O)c3cc(C(=O)NC4CCN(C)CC4(F)F)sc23)cc(OC)c1CN1CC(CN2CCC3(CC2)CN(c2ccc4c(c2)CN(C2CCC(=O)NC2=O)C4=O)C3)C1` (centres unmarked) [Compound D104], for which the DC50 is below 10 nM.

In the case of `COc1cc(-c2cn(C)c(=O)c3cc(C(=O)NC4CCN(c5ccc(OC6CCC(=O)NC6=O)cc5)CC4)sc23)cc(OC)c1CN(C)C` (centres unmarked) [Compound D105], the DC50 is below 10 nM.

With `COc1cc(-c2cn(C)c(=O)c3ccsc23)cc(OC)c1CN1CCC2CN(c3ccc4c(c3)C(=O)N(C3CCC(=O)NC3=O)C4)CCC2C1` (centres unmarked) [Compound D106], the DC50 was below 10 nM.

In the case of `COc1cc(-c2cn(C)c(=O)c3ccsc23)cc(OC)c1CN1CCC2(CC1)CN(c1ccc3c(c1)C(=O)N(C1CCC(=O)N(COC(=O)[C@@H](N)C(C)C)C1=O)C3=O)C2` (some centres unmarked) [Compound D107], the DC50 is below 10 nM.

For `COc1cc(-c2cn(C)c(=O)c3cc(C(=O)NC4CCN(c5cccc(OC6CCC(=O)NC6=O)c5)CC4)sc23)cc(OC)c1CN(C)C` (centres unmarked) [Compound D108], the DC50 is below 10 nM.

On to `COc1cc(OC)cc(-c2cn(C)c(=O)c3cc(C(=O)NC4CCN(c5ccc6c(c5)C(=O)N(C5CCC(=O)NC5=O)C6)CC4)sc23)c1` (centres unmarked) [Compound D109], for which the DC50 is below 10 nM.

In the case of `COc1cc(-c2cn(C)c(=O)c3cc(C(C)C)sc23)cc(OC)c1CN1CCC2(CC1)CN(c1ccc3c(c1)C(=O)N(C1CCC(=O)NC1=O)C3)C2` (centres unmarked) [Compound D110], the DC50 is below 10 nM.

Turning to `COc1cc(-c2cn(C)c(=O)c3ccsc23)cc(OC)c1CN1CCC2(CN(c3ccc4c(c3)C(=O)N(C3CCC(=O)NC3=O)C4)C2)C(F)(F)C1` (centres unmarked) [Compound D111], the DC50 was below 10 nM.

On to `COc1cc(-c2cn(C)c(=O)c3cc(C(=O)N[C@H]4CCN(CCN5CCN(c6ccc7c(c6)C(=O)N(C6CCC(=O)NC6=O)C7)CC5)CC4(F)F)sc23)cc(OC)c1CN(C)C` (some centres unmarked) [Compound D112], for which the DC50 was below 10 nM.

For the compound `COc1cc(-c2cn(C)c(=O)c3ccsc23)cc(OC)c1CN1CCC2CCN(c3ccc4c(c3)C(=O)N(C3CCC(=O)NC3=O)C4)CC2C1` (centres unmarked) [Compound D113], the DC50 was below 10 nM.

In the case of `COc1cc(-c2cn(C)c(=O)c3cc(C(=O)NC4CCN(c5ccc6c(c5)C(=O)N(C5CCC(=O)NC5=O)C6)C4)sc23)cc(OC)c1CN(C)C` (centres unmarked) [Compound D114], the DC50 was below 10 nM.

On to `COc1cc(OC)cc(-c2cn(C)c(=O)c3cc(C(=O)NC4CN(c5ccc6c(c5)C(=O)N(C5CCC(=O)NC5=O)C6)C4)sc23)c1` (centres unmarked) [Compound D115], for which the DC50 was below 10 nM.

As for `Cn1cc(-c2cccc(C(F)(F)F)c2)c2sc(C(=O)NC3CC4(CCN(c5ccc6c(c5)C(=O)N(C5CCC(=O)NC5=O)C6)CC4)C3)cc2c1=O` (centres unmarked) [Compound D117], the DC50 is below 10 nM.

With `COc1cc(-c2cn(C)c(=O)c3cc(C(=O)NC4CCN(c5ccc6c(c5)C(=O)N(C5CCC(=O)NC5=O)C6)CC4(F)F)sc23)cc(F)c1CN(C)C` (centres unmarked) [Compound D118], the DC50 is below 10 nM.

Consider `COCc1cc2c(=O)n(C)cc(-c3cc(OC)c(CN4CCC5(CC4)CN(c4ccc6c(c4)C(=O)N(C4CCC(=O)NC4=O)C6)C5)c(OC)c3)c2s1` (centres unmarked) [Compound D119], for which the DC50 was below 10 nM.

Turning to `COc1cc2c(=O)n(C)cc(-c3cc(OC)c(CN4CCC5(CC4)CN(c4ccc6c(c4)C(=O)N(C4CCC(=O)NC4=O)C6)C5)c(OC)c3)c2s1` (centres unmarked) [Compound D120], the DC50 is below 10 nM.

Take `COc1cc(-c2cn(C)c(=O)c3ccsc23)cc(OC)c1CN1CCC2CCN(c3ccc4c(c3)CN(C3CCC(=O)NC3=O)C4=O)CC2C1` (centres unmarked) [Compound D121]: the DC50 was below 10 nM.

Regarding `COc1cc(-c2cn(C)c(=O)c3ccsc23)cc(OC)c1C1CCN(c2ccc3c(c2)C(=O)N(C2CCC(=O)NC2=O)C3)C1` (centres unmarked) [Compound D122], the DC50 is below 10 nM.

As to `COc1cc(-c2cn(C)c(=O)c3ccsc23)cc(OC)c1C1CCN(c2ccc3c(c2)C(=O)N(C2CCC(=O)NC2=O)C3)CC1` (centres unmarked) [Compound D123], the DC50 was below 10 nM.

On to `COc1cc(-c2cn(C)c(=O)c3cc(C(=O)NC4CCN(c5cccc(CN6CCC(=O)NC6=O)c5)CC4)sc23)cc(OC)c1CN(C)C` [Compound D124], for which the DC50 was below 10 nM.

For the compound `Cn1cc(-c2ccc(-c3ccc4c(c3)C(=O)N(C3CCC(=O)NC3=O)C4)c(C(F)(F)F)c2)c2sccc2c1=O` (centres unmarked) [Compound D125], the DC50 was below 10 nM.

Consider `COc1cc(-c2cn(C)c(=O)c3cc(C(=O)NC4CCN(C5CCN(c6ccc7c(c6)C(=O)N(C6CCC(=O)NC6=O)C7)CC5(F)F)CC4)sc23)cc(OC)c1CN(C)C` (centres unmarked) [Compound D126], for which the DC50 was below 10 nM.

On to `COc1cc(-c2cn(C)c(=O)c3cc(C(=O)NC4CCN(C5CCN(c6ccc7c(c6)CN(C6CCC(=O)NC6=O)C7=O)CC5(F)F)CC4)sc23)cc(OC)c1CN(C)C` (centres unmarked) [Compound D127], for which the DC50 is below 10 nM.

Regarding `Cn1cc(-c2cccc(C(F)(F)F)c2)c2sc(C(=O)NC3CCN(c4ccc5c(c4)C(=O)N(C4CCC(=O)NC4=O)C5)CC3)cc2c1=O` (centres unmarked) [Compound D128], the DC50 was below 10 nM.

As for `CCc1cc(OC)cc(-c2cn(C)c(=O)c3cc(C(=O)NC4CCN(c5ccc6c(c5)C(=O)N(C5CCC(=O)NC5=O)C6)CC4(F)F)sc23)c1` (centres unmarked) [Compound D129], the DC50 is below 10 nM.

Turning to `COc1cc(-c2cn(C)c(=O)c3cc(C(=O)NC4CCN(CCN5CCN(c6ccc7c(c6)C(=O)N(C6CCC(=O)NC6=O)C7)CC5)CC4)sc23)cc(OC)c1CN(C)C` (centres unmarked) [Compound D130], the DC50 was below 10 nM.

`COc1cc(OC)cc(-c2cn(C)c(=O)c3cc(C(=O)NC4CCN(c5ccc6c(c5)C(=O)N(C5CCC(=O)NC5=O)C6)CC4(F)F)sc23)c1` (centres unmarked) [Compound D131]: the DC50 is below 10 nM.

The values above are taken from patent US12686687B2, “Compounds and uses thereof” (Foghorn Therapeutics Inc., priority 2019, dated 2026).
